# Measured values from US20200071699A1, “TREATMENT OF ALZHEIMERS DISEASE WITH MICRO RNA AND GHRELIN” (priority 2018, published 2020).
# Ends that are not written are not given here. * marks the point of attachment. Octanoyl = CCCCCCCC(=O)*
# Experiments:
# [1] = system: pericytes coverage of capillaries; assay: Pericyte coverage of isolated capillaries after ghrelin administration; assay type: in vivo, mouse; details: 3×Tg-AD mice aged 9 months; ghrelin s.c. per day every 2 days for 2 weeks vs vehicle (saline); P<0.001
# Source text: (§1) Triple transgenic mice, 3×Tg-AD, containing three mutations ([…], APP Swedish and MAPT P301L), are widely used as an animal model of FAD. Age and gender-matched B6129SF2/J strain were used as the wild type (WT) control. Mice were obtained from the Jackson Laboratory and bred in our research institute's animal facility. Mice were housed in plastic cages on a 12 hr/12 hr light/dark cycle with ad libitum access to water and standard rodent diet. Animal usage was approved by California Medical Innovations Institute (CalMI2) Institutional Animal Care and Use Committee (IACUC). The genotyping was conducted in CalMI2 animal facilities at the age of 21 days by tail DNA extraction according to our previous protocol and the online information supplied by the vendor. […]
# (§2) The isolated microvessel fragments were smeared onto Superfrost Plus pre-cleaned glass microscope slides and fixed using ICC Fixation Buffer (BD Pharmingen) for 15 min at room temperature (RT). […] For coverage analysis, the percentage of PDGFRβ-positive pericyte area covering lectin-positive capillary area was quantified using Image J Area analysis as described previously. For the expression analysis of Aβ transporters, the area of LRP1, RAGE and Mdr1-occupied endothelium were measured as an area percentage normalized by the total area of lectin-positive capillaries using Image J Area measurement tool. […]
# [2] = system: miR-126; assay: qPCR of capillary miR-126 after ghrelin administration; assay type: in vivo, mouse; details: 3×Tg-AD mice aged 9 months; ghrelin s.c. vs saline; P<0.05
# Source text: as §1
# (§3) Total RNA was purified with Trizol reagent (Invitrogen), according to the manufacturer's instructions. To quantify miR-126-3p (MIMAT0000138), miR-145-5p (MIMAT0000157), miR-195-5p (MIMAT0000225), miR-21-5p (MIMAT0000530) and miR-29b-3p (MIMAT0000127), reverse transcription and quantitative PCR (qPCR) were performed using the TaqMan@ microRNA assay kit (Applied Biosystems) as previously described. […] Relative gene expression levels between wild type and 3×Tg-AD mice were determined using the comparative Ct (2^−ΔΔCt) method after normalizing to U6.
# [3] = system: miR-145; assay: qPCR of capillary miR-145 after ghrelin administration; assay type: in vivo, mouse; details: 3×Tg-AD mice aged 9 months; ghrelin s.c. vs saline; P<0.05
# Source text: as §1, §3
# [4] = system: 5 capillary miRNAs (miR-126, miR-145, miR-195, miR-21, miR-29b); assay: qPCR of 5 capillary miRNAs after ghrelin administration; assay type: in vivo, mouse; details: 9 months 3×Tg mice; ghrelin 600 μg/kg per day, every 2 days for 2 weeks S.C. vs saline
# Source text: as §1
# as §3, with “U6. […]” for “U6.”
# [5] = system: Aβ oligomers; assay: Aβ oligomers (ELISA, immunoblot) in microvessel-depleted cortex and hippocampus after ghrelin; assay type: in vivo, mouse
# Source text: as §1, with “vendor. Ten mice per strain (3×Tg-AD, B6129SF2/J) at the ages of 6, 9, and 12 months were used in this study.” for “vendor.”
# The method has been described previously. […] After centrifugation at 12,000 rpm for 20 min, protein content was determined by Bradford assay. […]
# Human Aβ oligomers were analyzed in the microvessel-depleted cortex and hippocampal supernatant by enzyme-linked immunosorbent assay (ELISA; IBL International, Germany) according to manufacturer's instructions. […]
# [6] = system: RAGE; assay: Expression of Aβ transporters in isolated capillaries after ghrelin (immunofluorescence); assay type: in vivo, mouse; details: 3×Tg-AD mice aged 9 months; ghrelin vs saline-injected group
# Source text: as §1, §2
# [7] = system: Aβ plaque; details: 5×FAD mice with ghrelin treatment; cited from earlier work
substance,measurement,setting,value
"n-octanoylated ghrelin (GSS(Octanoyl)FLSPEHQRVQQRKESKKPPAKLQPR; UniProt Q9UBU3 24-51, looked up) [neuropeptide ""hunger hormone"" generated from ghrelinergic cells of the gastrointestinal tract; n-octanoylated ghrelin from AnaSpec]",percentage of pericyte coverage,[1],increased significantly
same,expression level of capillary miR126 from hippocampus and cerebral cortex,[2],significant increase
same,expression level of capillary miR-145 from hippocampus and cerebral cortex,[3],significant increase
same,expression levels of all 5 capillary miRNAs in hippocampus and cerebral cortex,[4],significant increase
same,level of Aβ oligomers,"[5]; 3×Tg-AD mice aged 9 months, ghrelin vs vehicle, ELISA and immunoblot, vessels-depleted hippocampus and cortex, P<0.05",significantly lower level
same,Aβ levels (both APP and Aβ oligomers),"[5]; 9 months 3×Tg mice, ghrelin 600 μg/kg per day, every 2 days for 2 weeks S.C. vs saline, 6E10 and A11 antibodies",significantly lower
same,decline of relative expression of RAGE in isolated capillaries,[6],~10%
same,Aβ plaque burden,[7],no significant diminishment
